ChEMBL document CHEMBL1201862, “PubChem BioAssay data set” (2004)
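Following 48 hours of exposure in 96-well plates, responses at five concentrations were used to interpolate endpoints linearly. GI50 marks 50% less growth.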 Calls of active or inactive are those of the source. Cut-off read from the data, not from the text of the source: active = GI50 up to about 1.1 µM and inactive = higher.

Columns and labels:
Assay in all cases: DTP human tumour cell line panel, 48 h
UACC-257 = system: UACC-257
IGROV-1 = system: IGROV-1
NCI-H226 = system: NCI-H226
UACC-62 = system: UACC-62
LOX IMVI = system: LOX IMVI
KM12 = system: KM12
SNB-75 = system: SNB-75
OVCAR-5 = system: OVCAR-5
NCI-H460 = system: NCI-H460
PC-3 = system: PC-3
SW-620 = system: SW-620
786-0 = system: 786-0
OVCAR-4 = system: OVCAR-4
HCC 2998 = system: HCC 2998
COLO 205 = system: COLO 205
U-251 = system: U-251
NCI-H23 = system: NCI-H23
T47D = system: T47D
UO-31 = system: UO-31
DU-145 = system: DU-145

| Structure (SMILES) | GI50 (UACC-257) | GI50 (IGROV-1) | GI50 (NCI-H226) | GI50 (UACC-62) | GI50 (LOX IMVI) | GI50 (KM12) | GI50 (SNB-75) | GI50 (OVCAR-5) | GI50 (NCI-H460) | GI50 (PC-3) | GI50 (SW-620) | GI50 (786-0) | GI50 (OVCAR-4) | GI50 (HCC 2998) | GI50 (COLO 205) | GI50 (U-251) | GI50 (NCI-H23) | GI50 (T47D) | GI50 (UO-31) | GI50 (DU-145) |
| --- | --- | --- | --- | --- | --- | --- | --- | --- | --- | --- | --- | --- | --- | --- | --- | --- | --- | --- | --- | --- |
| Cc1ccc(S(=O)(=O)Nn2c(O)c(C#N)c(-c3ccc(N(C)C)cc3)c(C#N)c2=O)cc1 | > 50 µM (inactive) | > 50 µM (inactive) | > 50 µM (inactive) | 19.8 µM (inactive) | > 50 µM (inactive) | > 50 µM (inactive) | > 50 µM (inactive) | 21.8 µM (inactive) | > 50 µM (inactive) | > 50 µM (inactive) | > 50 µM (inactive) | > 50 µM (inactive) | > 50 µM (inactive) | > 50 µM (inactive) | > 50 µM (inactive) | > 50 µM (inactive) | – | – | – | – |
| NC1=NC2(COC(c3ccccc3)(c3ccccc3)c3ccccc3)OC(COC(c3ccccc3)(c3ccccc3)c3ccccc3)C(O)C2O1 (stereo not given) | 51.2 µM (inactive) | 21.8 µM (inactive) | 24.2 µM (inactive) | 27.6 µM (inactive) | > 100 µM (inactive) | 21.6 µM (inactive) | < 0.01 µM (active) | 81.7 µM (inactive) | – | 11.2 µM (inactive) | > 100 µM (inactive) | > 100 µM (inactive) | – | – | 67.1 µM (inactive) | > 100 µM (inactive) | 23.1 µM (inactive) | 53.1 µM (inactive) | 13.4 µM (inactive) | > 100 µM (inactive) |
| CCOC(=O)C(=O)Nc1c(C)cccc1C | > 100 µM (inactive) | > 100 µM (inactive) | > 100 µM (inactive) | > 100 µM (inactive) | > 100 µM (inactive) | > 100 µM (inactive) | > 100 µM (inactive) | > 100 µM (inactive) | > 100 µM (inactive) | – | > 100 µM (inactive) | > 100 µM (inactive) | > 100 µM (inactive) | > 100 µM (inactive) | > 100 µM (inactive) | > 100 µM (inactive) | > 100 µM (inactive) | – | > 100 µM (inactive) | – |
| C[C@@]1(O)CC[C@]2(C)C3CCCC3[C@H]12 (stereo not given in full) | > 100 µM (inactive) | > 100 µM (inactive) | > 100 µM (inactive) | > 100 µM (inactive) | > 100 µM (inactive) | > 100 µM (inactive) | > 100 µM (inactive) | > 100 µM (inactive) | > 100 µM (inactive) | – | > 100 µM (inactive) | > 100 µM (inactive) | > 100 µM (inactive) | > 100 µM (inactive) | > 100 µM (inactive) | > 100 µM (inactive) | > 100 µM (inactive) | – | > 100 µM (inactive) | – |
| COc1ccccc1C12OC(=O)C1(C)Oc1ccccc1C2=O (stereo not given) | > 100 µM (inactive) | > 100 µM (inactive) | > 100 µM (inactive) | > 100 µM (inactive) | 26.8 µM (inactive) | > 100 µM (inactive) | 34.8 µM (inactive) | > 100 µM (inactive) | > 100 µM (inactive) | – | > 100 µM (inactive) | > 100 µM (inactive) | > 100 µM (inactive) | > 100 µM (inactive) | > 100 µM (inactive) | > 100 µM (inactive) | > 100 µM (inactive) | – | > 100 µM (inactive) | – |
| N#C/C(c1nc2ccccc2[nH]1)=c1\s/c(=C/c2ccc(Cl)cc2)c(=O)n1-c1ccccc1 | > 100 µM (inactive) | 15.7 µM (inactive) | > 100 µM (inactive) | > 100 µM (inactive) | > 100 µM (inactive) | > 100 µM (inactive) | 37.3 µM (inactive) | > 100 µM (inactive) | > 100 µM (inactive) | – | > 100 µM (inactive) | > 100 µM (inactive) | > 100 µM (inactive) | > 100 µM (inactive) | > 100 µM (inactive) | > 100 µM (inactive) | > 100 µM (inactive) | – | > 100 µM (inactive) | – |
| Cc1cc([N+](=O)[O-])ccc1Sc1c2ccccc2nc2cc(Cl)ccc12 | 73.6 µM (inactive) | 46.2 µM (inactive) | 61.5 µM (inactive) | 34.5 µM (inactive) | 24.9 µM (inactive) | 18.6 µM (inactive) | 30.8 µM (inactive) | 56.2 µM (inactive) | 36.6 µM (inactive) | – | 31.2 µM (inactive) | 35.2 µM (inactive) | 41.4 µM (inactive) | > 100 µM (inactive) | 38.4 µM (inactive) | 27.8 µM (inactive) | 28.8 µM (inactive) | – | 45.2 µM (inactive) | – |
| CC1=C(C(=O)CC(=O)C(=O)Nc2ccccc2C)Sc2ccccc2N1 | > 100 µM (inactive) | > 100 µM (inactive) | > 100 µM (inactive) | > 100 µM (inactive) | > 42.4 µM (inactive) | > 100 µM (inactive) | > 53.8 µM (inactive) | > 100 µM (inactive) | > 40.4 µM (inactive) | – | > 39.3 µM (inactive) | > 45.5 µM (inactive) | > 100 µM (inactive) | > 74.3 µM (inactive) | > 42.7 µM (inactive) | > 61.2 µM (inactive) | > 100 µM (inactive) | – | > 100 µM (inactive) | – |
| Cc1ccc2oc3c(c(Br)c(Br)n3C)c(=O)c2c1 | 65.5 µM (inactive) | 10.5 µM (inactive) | 15.6 µM (inactive) | 19.6 µM (inactive) | 31.3 µM (inactive) | > 100 µM (inactive) | – | 41.6 µM (inactive) | – | 35 µM (inactive) | > 100 µM (inactive) | 16.7 µM (inactive) | 51.5 µM (inactive) | – | > 100 µM (inactive) | 18.2 µM (inactive) | 19.5 µM (inactive) | 41.5 µM (inactive) | 13.9 µM (inactive) | 78.9 µM (inactive) |
| COc1cc([C@@H]2c3cc4c(cc3[C@@H](NC(=O)c3ccc([N+](=O)[O-])cc3)C3COC(=O)[C@@H]32)OCO4)cc(OC)c1O (stereo not given in full) | 3.16 µM (inactive) | 0.261 µM (active) | 0.104 µM (active) | 0.241 µM (active) | 0.318 µM (active) | 1.08 µM (active) | 0.809 µM (active) | 1.87 µM (inactive) | < 0.01 µM (active) | – | 0.147 µM (active) | 0.242 µM (active) | 8.04 µM (inactive) | 1.22 µM (inactive) | 2.13 µM (inactive) | 0.108 µM (active) | 0.258 µM (active) | – | 2.63 µM (inactive) | – |
| O=C(NCCNCCO)c1cccc2ccc(-c3ccccc3)nc12 | 3.47 µM (inactive) | 3.12 µM (inactive) | 4.46 µM (inactive) | 4.54 µM (inactive) | 2.7 µM (inactive) | 5.68 µM (inactive) | 10.4 µM (inactive) | 4.8 µM (inactive) | 2.02 µM (inactive) | – | 3.15 µM (inactive) | 6.87 µM (inactive) | 6.5 µM (inactive) | 5.01 µM (inactive) | 3.1 µM (inactive) | 4.82 µM (inactive) | 4.68 µM (inactive) | – | 3.44 µM (inactive) | – |
| O=C(NC1C2CC3CC(C2)CC1C3)/C(Cl)=C1/Sc2ccccc2NC1=O (stereo not given) | > 100 µM (inactive) | > 100 µM (inactive) | > 100 µM (inactive) | > 89.5 µM (inactive) | 99.3 µM (inactive) | > 62.8 µM (inactive) | 97.9 µM (inactive) | > 100 µM (inactive) | > 89.9 µM (inactive) | – | > 100 µM (inactive) | > 100 µM (inactive) | > 100 µM (inactive) | > 80 µM (inactive) | > 100 µM (inactive) | > 100 µM (inactive) | > 100 µM (inactive) | – | 58.9 µM (inactive) | – |
| CC[C@]1(Cc2ccc(OC)c(OC)c2)[C@@H]2C[C@@H](C(=O)OC)ON2O[C@H](OC2CCCC2(c2ccccc2)c2ccccc2)[C@@H]1OC(C)=O (stereo not given in full) | > 100 µM (inactive) | > 100 µM (inactive) | > 100 µM (inactive) | > 100 µM (inactive) | > 100 µM (inactive) | > 100 µM (inactive) | > 100 µM (inactive) | > 100 µM (inactive) | > 100 µM (inactive) | – | > 100 µM (inactive) | > 100 µM (inactive) | – | – | > 100 µM (inactive) | > 100 µM (inactive) | > 100 µM (inactive) | > 100 µM (inactive) | > 100 µM (inactive) | > 100 µM (inactive) |
| CC1CC[C@]2(C(=O)O)CCC3(C)C(=CCC4[C@@]5(C)CC[C@H](OS(=O)(=O)c6ccccc6)C(C)(C)C5CC[C@]43C)[C@@H]2[C@H]1C (stereo not given in full) | > 100 µM (inactive) | > 100 µM (inactive) | 62.2 µM (inactive) | > 100 µM (inactive) | 83 µM (inactive) | > 100 µM (inactive) | > 100 µM (inactive) | > 100 µM (inactive) | > 100 µM (inactive) | – | > 100 µM (inactive) | > 100 µM (inactive) | > 100 µM (inactive) | 63.8 µM (inactive) | 38.1 µM (inactive) | 83.2 µM (inactive) | 52.7 µM (inactive) | – | 88.9 µM (inactive) | – |
| COc1cc2oc(-c3ccc(O)cc3)cc(=O)c2c(OC)c1O | > 100 µM (inactive) | 57.3 µM (inactive) | > 100 µM (inactive) | 99.5 µM (inactive) | 60.5 µM (inactive) | – | 14.5 µM (inactive) | > 100 µM (inactive) | 45.7 µM (inactive) | – | > 100 µM (inactive) | 36 µM (inactive) | > 100 µM (inactive) | 96.8 µM (inactive) | > 100 µM (inactive) | 38.9 µM (inactive) | > 100 µM (inactive) | 6.41 µM (inactive) | 33.2 µM (inactive) | 94.8 µM (inactive) |
